Reference: ChEMBL document CHEMBL1201862, “PubChem BioAssay data set” (2004)
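A five-concentration, 48-hour dose response in 96-well plates underlies each endpoint, interpolated linearly between surrounding concentrations. Here, GI50 denotes the concentration required for 50% inhibition of growth.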 Calls of active or inactive are those of the source. Cut-off read from the data, not from the text of the source: active = GI50 up to about 1.1 µM and inactive = higher.

Legend:
Test in all cases: DTP human tumour cell line panel, 48 h
HT-29 = test system: HT-29
SW-620 = test system: SW-620
HL-60 = test system: HL-60
Malme-3M = test system: Malme-3M
PC-3 = test system: PC-3
UACC-62 = test system: UACC-62
U-251 = test system: U-251
SK-MEL-5 = test system: SK-MEL-5
ACHN = test system: ACHN
NCI-H522 = test system: NCI-H522
T47D = test system: T47D
SNB-75 = test system: SNB-75
DU-145 = test system: DU-145
A498 = test system: A498
M14 = test system: M14
HCT-15 = test system: HCT-15
HCC 2998 = test system: HCC 2998
TK-10 = test system: TK-10
NCI-H23 = test system: NCI-H23
NCI/ADR-RES = test system: NCI/ADR-RES
UO-31 = test system: UO-31
CAKI-1 = test system: CAKI-1
RXF 393 = test system: RXF 393
MOLT-4 = test system: MOLT-4
CCRF-CEM = test system: CCRF-CEM
MCF7 = test system: MCF7
OVCAR-3 = test system: OVCAR-3
MDA-MB-435 = test system: MDA-MB-435
OVCAR-8 = test system: OVCAR-8
BT-549 = test system: BT-549
SF-295 = test system: SF-295
OVCAR-4 = test system: OVCAR-4
786-0 = test system: 786-0
SK-MEL-28 = test system: SK-MEL-28
A549 = test system: A549
EKVX = test system: EKVX
KM12 = test system: KM12
SF-268 = test system: SF-268
HOP-92 = test system: HOP-92
SR = test system: SR
SN12C = test system: SN12C
LOX IMVI = test system: LOX IMVI
HOP-62 = test system: HOP-62
OVCAR-5 = test system: OVCAR-5
NCI-H460 = test system: NCI-H460
Hs-578T = test system: Hs-578T
SF-539 = test system: SF-539
MDA-MB-231 = test system: MDA-MB-231
SK-MEL-2 = test system: SK-MEL-2
COLO 205 = test system: COLO 205
UACC-257 = test system: UACC-257
RPMI-8226 = test system: RPMI-8226
IGROV-1 = test system: IGROV-1
MDA-N = test system: MDA-N
NCI-H226 = test system: NCI-H226
SNB-19 = test system: SNB-19
HCT-116 = test system: HCT-116

O=c1[nH]c(=O)n(C/C=C/CO)nc1Br
GI50 (HT-29): > 100 µM (inactive) | GI50 (SW-620): > 100 µM (inactive) | GI50 (HL-60): > 100 µM (inactive) | GI50 (Malme-3M): > 100 µM (inactive) | GI50 (PC-3): > 100 µM (inactive) | GI50 (UACC-62): > 100 µM (inactive) | GI50 (U-251): > 100 µM (inactive) | GI50 (SK-MEL-5): > 100 µM (inactive) | GI50 (ACHN): > 100 µM (inactive) | GI50 (NCI-H522): > 100 µM (inactive) | GI50 (T47D): > 100 µM (inactive) | GI50 (SNB-75): > 100 µM (inactive) | GI50 (DU-145): > 100 µM (inactive) | GI50 (A498): > 100 µM (inactive) | GI50 (M14): > 100 µM (inactive) | GI50 (HCT-15): > 100 µM | GI50 (HCC 2998): > 100 µM (inactive) | GI50 (TK-10): > 100 µM (inactive) | GI50 (NCI-H23): > 100 µM (inactive) | GI50 (NCI/ADR-RES): > 100 µM (inactive) | GI50 (UO-31): > 100 µM (inactive) | GI50 (CAKI-1): > 100 µM (inactive) | GI50 (RXF 393): > 100 µM (inactive) | GI50 (MOLT-4): > 100 µM (inactive) | GI50 (CCRF-CEM): > 100 µM (inactive) | GI50 (MCF7): > 100 µM (inactive) | GI50 (OVCAR-3): > 100 µM (inactive) | GI50 (MDA-MB-435): > 100 µM (inactive) | GI50 (OVCAR-8): > 100 µM (inactive) | GI50 (BT-549): > 100 µM (inactive) | GI50 (SF-295): > 100 µM (inactive) | GI50 (OVCAR-4): > 100 µM (inactive) | GI50 (786-0): > 100 µM (inactive) | GI50 (SK-MEL-28): > 100 µM (inactive) | GI50 (A549): > 100 µM (inactive) | GI50 (EKVX): > 100 µM (inactive) | GI50 (KM12): > 100 µM (inactive) | GI50 (SF-268): > 100 µM (inactive) | GI50 (HOP-92): > 100 µM (inactive) | GI50 (SR): > 100 µM (inactive) | GI50 (SN12C): > 100 µM (inactive) | GI50 (LOX IMVI): > 100 µM (inactive) | GI50 (HOP-62): > 100 µM (inactive) | GI50 (OVCAR-5): > 100 µM (inactive) | GI50 (NCI-H460): > 100 µM (inactive) | GI50 (Hs-578T): > 100 µM (inactive) | GI50 (SF-539): > 100 µM (inactive) | GI50 (MDA-MB-231): > 100 µM (inactive) | GI50 (SK-MEL-2): > 100 µM (inactive) | GI50 (COLO 205): > 100 µM (inactive) | GI50 (UACC-257): > 100 µM (inactive) | GI50 (RPMI-8226): > 100 µM (inactive) | GI50 (IGROV-1): > 100 µM (inactive) | GI50 (MDA-N): > 100 µM (inactive) | GI50 (NCI-H226): > 100 µM (inactive) | GI50 (SNB-19): > 100 µM (inactive) | GI50 (HCT-116): > 100 µM (inactive)
